Assay results published in the NIST ThermoML archive (doi:10.1016/j.jct.2017.11.011).

Legend:
[1] = 101.33 kPa, Liquid, Vibrating tube method
[2] = relative permittivity at various frequencies (dimensionless); details: 100 kPa, Liquid, Frequency=1 MHz, Parallel plate capacitor
[3] = relative permittivity at various frequencies (dimensionless); xn = mol fraction of the nth substance listed; details: 100 kPa, Liquid, Frequency=1 MHz, Parallel plate capacitor

Nc1ccccc1 [aniline]
Details	mass density, 293.15 K [kg/m3]	mass density, 298.1 K [kg/m3]	mass density, 303.15 K [kg/m3]	relative permittivity, 293.15 K	relative permittivity, 298.15 K	relative permittivity, 303.15 K
[1]	1021.79	1017.52	1013.19	–	–	–
[2]	–	–	–	7.117	6.984	6.856

Nc1ccccc1 [aniline] + CN(C)C=O
relative permittivity, [3]
Details	293.15 K	298.15 K	303.15 K
x2 = 0	7.117	6.984	6.856
x2 = 0.0533	8.91	8.729	8.557
x2 = 0.1046	10.653	10.426	10.2
x2 = 0.1562	12.414	12.144	11.876
x2 = 0.2033	14.004	13.689	13.383
x2 = 0.3015	17.269	16.874	16.485
x2 = 0.4071	20.625	20.146	19.678
x2 = 0.5013	23.428	22.895	22.371
x2 = 0.5999	26.184	25.601	25.026
x2 = 0.6989	28.955	28.31	27.687
x2 = 0.7931	31.604	30.92	30.246
x2 = 0.8431	33.12	32.402	31.69
x2 = 0.8982	34.833	34.071	33.315
x2 = 0.9459	36.439	35.62	34.821

CN(C)C=O [dimethylformamide]
[2]
Details	relative permittivity
293.15 K	38.334
298.15 K	37.44
303.15 K	36.58

CN(C)C=O [dimethylformamide] + Nc1ccccc1
[3], x1 = 1
Details	relative permittivity
293.15 K	38.334
298.15 K	37.44
303.15 K	36.58
